Measured values as given in patent publication US4882316A, “Pyrimidine derivatives” (Hoffmann-La Roche Inc., priority 1986, dated 1989).
pIC50: −log10 of the molar value.

Target: herpes simplex virus type 2 (HSV-2) thymidine kinase (Human herpesvirus 2, UniProt P89446)
Assay: inhibition of herpes simplex virus type 2 (HSV-2) thymidine kinase in vitro (3H-thymidine phosphorylation)
Format: biochemical
Settings: thymidine kinase extract; 50 mM Tris-HCl, pH 8; 5 mM MgCl2; 5 mM ATP; 0.3 μM 3H-thymidine; 37° C., 30 minutes; read-out: IC50 (concentration of the test compound which inhibits enzyme activity by 50%)
Experimental: The assay mixture contains 50 mM Tris-HCl, pH 8, 5 mM magnesium chloride, 5 mM ATP, 0.3 μM ^3 H-thymidine (50 Ci/mmol), suitably diluted thymidine kinase extract and various concentrations of the test compounds in a total volume of 100 μl. Assays are incubated at 37° C. for 30 minutes and the reaction is terminated by immersion in a boiling water bath for 2 minutes. 85 μl aliquots from each assay are then dried on cellulose paper discs and the unphosphorylated ^3 H-thymidine is removed by washing in 4 mM ammonium formate. The radioactivity remaining bound to the discs is then measured by scintillation spectrophotometry. The degree of inhibition at each concentration of the test compound is expressed as a percentage of a control reaction. The IC50 value, namely the concentration of the test compound which inhibits enzyme activity by 50%, is then calculated. The results obtained with representative compounds of formula I are compiled in the following Table: […]

herpes simplex virus type 2 (HSV-2) thymidine kinase, sequence (P89446 whole entry): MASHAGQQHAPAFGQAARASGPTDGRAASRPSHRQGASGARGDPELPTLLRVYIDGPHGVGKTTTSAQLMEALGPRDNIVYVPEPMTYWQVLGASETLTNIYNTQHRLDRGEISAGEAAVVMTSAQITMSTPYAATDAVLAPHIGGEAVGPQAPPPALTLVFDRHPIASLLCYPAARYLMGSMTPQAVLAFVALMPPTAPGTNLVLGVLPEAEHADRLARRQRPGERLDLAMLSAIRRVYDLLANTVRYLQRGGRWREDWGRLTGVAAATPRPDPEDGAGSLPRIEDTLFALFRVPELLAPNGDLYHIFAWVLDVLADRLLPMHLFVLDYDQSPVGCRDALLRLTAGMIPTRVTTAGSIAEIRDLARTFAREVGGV

`CCc1cn([C@H]2C[C@H](O)[C@@H](CCC(O)Cc3c(Cl)cccc3Cl)O2)c(=O)[nH]c1=O` (mixture of isomers) [Example 5, 5'-[3-(2,6-dichlorophenyl)-2(RS)-hydroxypropyl]-2',5'-dideoxy-5-ethyluridine] was tested. Which pIC50 did it give?
The pIC50 was 7.80.

With `CCc1cn([C@H]2C[C@H](O)[C@@H](CCC(=O)Cc3c(Cl)cccc3Cl)O2)c(=O)[nH]c1=O` [Example 3, 5'-[3-(2,6-dichlorophenyl)-2-oxopropyl]-2',5'-dideoxy-5-ethyluridine] as the compound, how does the pIC50 read?
The pIC50 was 8.62.

`CCc1cn([C@H]2C[C@H](O)[C@@H](CCCCc3ccccc3)O2)c(=O)[nH]c1=O` [Example 7, 2',5'-dideoxy-5-ethyl-5'-(3-phenylpropyl)uridine] was tested. Which pIC50 did it give?
Its pIC50 is 6.77.

With `CCc1cn([C@H]2C[C@H](O)[C@@H](CS(=O)(=O)Cc3ccccc3)O2)c(=O)[nH]c1=O` [Example 9, 5'-benzylsulphonyl-2',5'-dideoxy-5-ethyluridine] as the compound, how does the pIC50 read?
The pIC50 was 6.22.

`CCc1cn([C@H]2C[C@H](O)[C@@H](CSCc3c(Cl)cccc3Cl)O2)c(=O)[nH]c1=O` [Example 14c, 5'-(2,6-dichlorobenzylthio)-2',5'-dideoxy-5-ethyluridine] was tested. Which pIC50 did it give?
The pIC50 was 7.14.
